From patent US20030143228A1, “Human telomerase reverse transcriptase as a class-II restricted tumor-associated antigen” (Baylor College of Medicine, priority 2001, published 2003)
Ends that are not written are not given here. code X = not defined here

System: HLA-DR4 transgenic mice
Experiment: hTRT766 immunization of HLA-DR4 transgenic mice, IFN-γ ELISPOT of splenocytes
Assay type: in vivo
Method: IFN-γ ELISPOT assay was used to analyze peptide-specific T cell responses by determining the frequency of Th precursors specific for the peptide. Mice were sacrificed […] after the last immunization and splenocytes were obtained for assessing IFN-γ production.
Briefly, 96-well MultiScreen-IP plates (Millipore Corporation, Bedford, Mass.) were coated with 100 ul/well capture mAb against mouse IFN-γ (AN-18, Mabtech Inc, Cincinnati, Ohio) at a concentration of 10 μg/ml and incubated overnight at 4° C. The plates were washed 4 times with PBS, then blocked with RPMI 1640 plus 10% FBS for 2 hours at 37° C. After washing, freshly isolated splenocytes were plated at 2×10^5cells/well in RPMI 1640 with 10% FBS, in the presence or absence of peptide hTRT766 (20 μg/ml), recombinant hTRT proteins (20 μg/ml) or hTRT-positive NA-6-Mel (ATCC) tumor lysates (50 ul/well). Tumor cell lysates were prepared by three freeze-thaw cycles of 5×10^7 tumor cells resuspended in 5 ml of RPMI 1640 with 10% FBS. Then the cells were centrifuged at 15,000 g for 30 minutes at 4° C. Supernatant was recovered, aliquoted and stored at −80° C. for later use, as described previously [Schroers, 2002 #116]. After 20 hours of cell culture in the incubator, the cells were removed by washing 3 times with PBS and 4 times with PBS/Tween20 (0.05%). Biotinylated anti-mouse IFN-γ antibody (R4-6A2, Mabtech Inc, Cincinnati, Ohio), diluted to 1 μg/ml in PBS/Tween20 containing 0.5% bovine serum albumin, was added and incubated for 2 hours at 37° C. The plates were then washed 6 times with PBS/Tween20 (0.05%) and subsequently avidin-peroxidase-complex (Vector Laboratories, Burlingame, Calif.) was added and incubated for 1 hour at room temperature, and removed by washing 3 times with PBS and PBS/Tween20 (0.05%). The color of the plates was developed by adding HRP substrate 3-amino-9-ethylcarbozole (Sigma, St. Louis, Mo.). The plates were then washed with tap water, and air dried in dark. The plates were evaluated using an automated ELISPOT reader (Zellnet Consulting Inc, New York, N.Y.).
To further assess the therapeutic potential of hTRT766, HLA-DR4 transgenic mice (Congia, 1998; Sonderstrup, 1998; Sonderstrup, 1999) were used to determine whether immunization with the peptide induces a CD4+ Th response specific not only for the peptide, but also for the hTRT protein.
Briefly, human HLA DR4 transgenic mice (HLA-DRB1*0401), which are murine class II-deficient and transduced with human CD4 molecule, were generated. [Congia, 1998; Sonderstrup, 1998; Sonderstrup, 1999). The transgenic mice were successfully used to identify human class-II-restricted epitopes and to study immune responses (Congia, 1998; Sonderstrup, 1998; Sonderstrup, 1999; Geluk, 1998). HLA DR4 expression on the transgenic mice was analyzed by flow cytometry. Male DR4 transgenic mice 6- to 10-week-old were used for experiment. The transgenic mice were immunized twice at one week interval with 100 μg of hTRT766 peptide emulsified in complete Freunds adjuvant (CFA) (final volume, 100 μl) and administered subcutaneously (s.c.) into the rear back. Control group mice were injected with phosphate-buffered saline (PBS) emulsified in CFA.
The spleen cells were isolated and stained with FITC-conjugated mouse anti-human HLA-DR, PE-conjugated mouse anti-human CD4 or FITC-conjugated rat anti-mouse CD4 (BD PharMingen, San Diego, Calif.). Flow cytometric analysis determined that these transgenic mice were human HLA-DR, CD4 positive and mouse CD4 negative. Ten days after the last immunization, the transgenic mice were sacrificed and the responses of their splenocytes to peptides, recombinant hTRT protein and hTRT-positive tumor cell were examined by using IFN-γ ELISPOT assays. The splenocytes of hTRT766-immunized mice responded strongly to the hTRT766 stimulation, producing IFN-γ at a frequency of 72 spots per million of splenocytes (medium control, 10/106). […]

## XLTDLQPYMRQFVAHL ({code X}-LTDLQPYMRQFVAHL; not fully specified; reading uncertain) [hTRT766]
100 μg peptide in CFA s.c. twice, IFN-γ ELISPOT
  response of splenocytes of immunized mice to irrelevant peptide hTRT854: did not respond
100 μg peptide in CFA s.c. twice, restimulated with hTRT766 peptide 20 μg/ml
  IFN-γ ELISPOT frequency of splenocytes of immunized mice: 72 spots per million of splenocytes
Restimulated with recombinant hTRT protein 20 μg/ml
  IFN-γ ELISPOT frequency of splenocytes of immunized mice: 41 spots per million cells
Stimulated with hTRT-negative GM847 tumor lysates, background frequency
  IFN-γ ELISPOT frequency of splenocytes of immunized mice: 10/106
Stimulated with hTRT-positive NA-6-Mel cell lysates
  IFN-γ ELISPOT frequency of splenocytes of immunized mice: 38 spots per million cells
Stimulated with irrelevant CEA-Fc proteins, background frequency
  IFN-γ ELISPOT frequency of splenocytes of immunized mice: 10/106
